Earlier results, collected in patent publication US20200179539A1, “Contrast Agents and Methods of Making the Same for Spectral CT That Exhibit Cloaking and Auto-Segmentation” (BOARD OF REGENTS, THE UNIVERSITY OF TEXAS SYSTEM, priority 2017, published 2020).

Tested on: rat
Details: rat oral

## [Na+].[Na+].[O]=[W](=[O])([O-])[O-] [sodium tungstate]
  LD50: 1,190 mg/Kg
